Laboratory results reported in PubChem BioAssay AID1259407 (Chemical Carcinogenesis Research Information System (CCRIS), 2018).
The source made the active and inactive calls. The rule behind the calls is not given here.

System: CCRIS mutagenicity, Ames/micronucleus/aberration tests
Test: CCRIS mutagenicity studies
[1] = Test System: AMES SALMONELLA TYPHIMURIUM, Strain/Indicator: TA100, Metabolic Activation: NONE, Method: PREINCUBATION
[2] = Test System: AMES SALMONELLA TYPHIMURIUM, Strain/Indicator: TA100, Metabolic Activation: RAT, LIVER, S-9, AROCLOR 1254, Method: PREINCUBATION
[3] = Test System: AMES SALMONELLA TYPHIMURIUM, Strain/Indicator: TA1535, Metabolic Activation: NONE, Method: PREINCUBATION
[4] = Test System: MOUSE LYMPHOMA, Strain/Indicator: L5178Y (TK+/TK-), Metabolic Activation: NONE, Method: SUSPENSION/PLATE
[5] = Test System: AMES SALMONELLA TYPHIMURIUM, Strain/Indicator: TA100, Metabolic Activation: NONE, Method: STANDARD PLATE
[6] = Test System: AMES SALMONELLA TYPHIMURIUM, Strain/Indicator: TA98, Metabolic Activation: NONE, Method: STANDARD PLATE
[7] = Test System: AMES SALMONELLA TYPHIMURIUM, Strain/Indicator: TA98, Metabolic Activation: RAT, LIVER, S-9, AROCLOR 1254, Method: STANDARD PLATE
[8] = Test System: AMES SALMONELLA TYPHIMURIUM, Strain/Indicator: TA100, Metabolic Activation: RAT, LIVER, S-9, AROCLOR 1254, Method: STANDARD PLATE

CC(C)(C#N)N=NC(C)(C)C#N
mutagenic call (Test System: AMES SALMONELLA TYPHIMURIUM, Strain/Indicator: TA98, Metabolic Activation: HAMSTER, LIVER, S-9, AROCLOR 1254, Method: PREINCUBATION): inactive; negative | mutagenic call (Test System: AMES SALMONELLA TYPHIMURIUM, Strain/Indicator: TA98, Metabolic Activation: NONE, Method: PREINCUBATION): inactive; negative | mutagenic call (Test System: AMES SALMONELLA TYPHIMURIUM, Strain/Indicator: TA98, Metabolic Activation: RAT LIVER S-9, PHENOBARBITAL AND BETA-NAPHTHOFLAVONE, Method: PREINCUBATION): inactive; negative | mutagenic call (Test System: AMES SALMONELLA TYPHIMURIUM, Strain/Indicator: TA98, Metabolic Activation: RAT, LIVER, S-9, AROCLOR 1254, Method: PREINCUBATION): inactive; negative | mutagenic call (Test System: AMES SALMONELLA TYPHIMURIUM, Strain/Indicator: TA100, Metabolic Activation: HAMSTER, LIVER, S-9, AROCLOR 1254, Method: PREINCUBATION): inactive; negative | mutagenic call [1]: inactive; negative | mutagenic call (Test System: AMES SALMONELLA TYPHIMURIUM, Strain/Indicator: TA100, Metabolic Activation: RAT LIVER S-9, PHENOBARBITAL AND BETA-NAPHTHOFLAVONE, Method: PREINCUBATION): inactive; negative | mutagenic call [2]: inactive; negative | mutagenic call (Test System: AMES SALMONELLA TYPHIMURIUM, Strain/Indicator: TA1535, Metabolic Activation: HAMSTER, LIVER, S-9, AROCLOR 1254, Method: PREINCUBATION): inactive; negative | mutagenic call [3]: inactive; negative | mutagenic call (Test System: AMES SALMONELLA TYPHIMURIUM, Strain/Indicator: TA1535, Metabolic Activation: RAT LIVER S-9, PHENOBARBITAL AND BETA-NAPHTHOFLAVONE, Method: PREINCUBATION): inactive; negative | mutagenic call (Test System: AMES SALMONELLA TYPHIMURIUM, Strain/Indicator: TA1535, Metabolic Activation: RAT, LIVER, S-9, AROCLOR 1254, Method: PREINCUBATION): inactive; negative | mutagenic call (Test System: AMES SALMONELLA TYPHIMURIUM, Strain/Indicator: TA1537, Metabolic Activation: HAMSTER, LIVER, S-9, AROCLOR 1254, Method: PREINCUBATION): inactive; negative | mutagenic call (Test System: AMES SALMONELLA TYPHIMURIUM, Strain/Indicator: TA1537, Metabolic Activation: NONE, Method: PREINCUBATION): inactive; negative | mutagenic call (Test System: AMES SALMONELLA TYPHIMURIUM, Strain/Indicator: TA1537, Metabolic Activation: RAT LIVER S-9, PHENOBARBITAL AND BETA-NAPHTHOFLAVONE, Method: PREINCUBATION): inactive; negative | mutagenic call (Test System: AMES SALMONELLA TYPHIMURIUM, Strain/Indicator: TA1537, Metabolic Activation: RAT, LIVER, S-9, AROCLOR 1254, Method: PREINCUBATION): inactive; negative | mutagenic call (Test System: AMES SALMONELLA TYPHIMURIUM, Strain/Indicator: TA1538, Metabolic Activation: HAMSTER, LIVER, S-9, AROCLOR 1254, Method: PREINCUBATION): inactive; negative | mutagenic call (Test System: AMES SALMONELLA TYPHIMURIUM, Strain/Indicator: TA1538, Metabolic Activation: NONE, Method: PREINCUBATION): inactive; negative | mutagenic call (Test System: AMES SALMONELLA TYPHIMURIUM, Strain/Indicator: TA1538, Metabolic Activation: RAT LIVER S-9, PHENOBARBITAL AND BETA-NAPHTHOFLAVONE, Method: PREINCUBATION): inactive; negative | mutagenic call (Test System: AMES SALMONELLA TYPHIMURIUM, Strain/Indicator: TA1538, Metabolic Activation: RAT, LIVER, S-9, AROCLOR 1254, Method: PREINCUBATION): inactive; negative | mutagenic call (Test System: E.COLI, Strain/Indicator: WP2UVRA, Metabolic Activation: NONE, Method: PREINCUBATION): inactive; negative | mutagenic call (Test System: E.COLI, Strain/Indicator: WP2UVRA, Metabolic Activation: RAT LIVER S-9, PHENOBARBITAL AND BETA-NAPHTHOFLAVONE, Method: PREINCUBATION): inactive; negative | mutagenic call [4]: inactive; negative. reevaluation of results: negative | mutagenic call (Test System: MOUSE LYMPHOMA, Strain/Indicator: L5178Y (TK+/TK-), Metabolic Activation: RAT, LIVER, S-9, AROCLOR 1254, Method: SUSPENSION/PLATE): inactive; negative. reevaluation of results: negative

CC(=O)CN(COC(C)=O)N=O
mutagenic call [3]: active; positive

c1ccc2c(c1)ccc1c3ccccc3sc21
mutagenic call [2]: active; positive

OC1c2cccnc2C2OC2C1O (centres undefined)
mutagenic call [5]: inactive; negative | mutagenic call (Test System: AMES SALMONELLA TYPHIMURIUM, Strain/Indicator: TA100, Metabolic Activation: RAT, LIVER, S-9, AROCLOR 1254 (10 OR 20%), Method: STANDARD PLATE): inactive; negative

Nc1ccc(F)cc1
mutagenic call (End Point: IN VITRO MICRONUCLEUS, Test System: CHL/IU CELLS, Metabolic Activation: RAT, LIVER, S-9, PHENOBARBITAL AND 5,6-BENZOFLAVONE): active; positive | mutagenic call (Test System: AMES SALMONELLA TYPHIMURIUM, Strain/Indicator: TA98, Metabolic Activation: HAMSTER, LIVER, S-9, AROCLOR 1254, Method: STANDARD PLATE): active; positive | mutagenic call [6]: inactive; negative | mutagenic call [7]: active; positive | mutagenic call (Test System: AMES SALMONELLA TYPHIMURIUM, Strain/Indicator: TA100, Metabolic Activation: HAMSTER, LIVER, S-9, AROCLOR 1254, Method: STANDARD PLATE): active; positive | mutagenic call [5]: inactive; negative | mutagenic call [8]: active; positive | mutagenic call (Test System: E. COLI, Strain/Indicator: WP2 UVRA, Metabolic Activation: NONE, Method: FLUCTUATION TEST): inactive; negative | mutagenic call [4]: active; positive. reevaluation of results: equivocal | mutagenic call (Test System: Mouse lymphoma, Strain/Indicator: L5178Y (tk+/tk-), Metabolic Activation: Rat, Liver, S-9, Aroclor 1254, Method: Suspension/plate): inconclusive (previous evaluation equivocal)

ClC(Cl)=C(c1ccc(Cl)cc1)c1ccc(Cl)cc1
mutagenic call (End Point: IN VITRO CHROMOSOMAL ABERRATIONS, Test System: CHINESE HAMSTER OVARY CELLS, Metabolic Activation: NONE): inactive; negative | mutagenic call (End Point: IN VITRO CHROMOSOMAL ABERRATIONS, Test System: CHINESE HAMSTER OVARY CELLS, Metabolic Activation: RAT, LIVER, S-9, AROCLOR 1254): inactive; negative | mutagenic call (Test System: AMES SALMONELLA TYPHIMURIUM, Strain/Indicator: TA97, Metabolic Activation: NONE, Method: STANDARD PLATE): inactive; negative | mutagenic call (Test System: AMES SALMONELLA TYPHIMURIUM, Strain/Indicator: TA97, Metabolic Activation: RAT, LIVER, S-9, AROCLOR 1254, Method: STANDARD PLATE): inactive; negative | mutagenic call [6]: inactive; negative | mutagenic call [7]: inactive; negative | mutagenic call [5]: inactive; negative | mutagenic call [8]: inactive; negative | mutagenic call (Test System: CHINESE HAMSTER V-79, Strain/Indicator: V-79/8-AZAGUANINE, Metabolic Activation: NONE, Method: STANDARD PLATE): active; positive | mutagenic call [4]: active; positive

Cc1cc2ccccc2c2ccc3c(c12)[C@H](O)[C@@H](O)[C@H]1O[C@@H]31
mutagenic call [1]: inactive; negative
